This is an account of results in patent US9145375B2, “Quinazolinone compounds” (PRANA BIOTECHNOLOGY LIMITED, priority 2008, dated 2015).

Values joined by “and” are separate entries in the source; they are usually repeats but may differ in a detail not shown here. Equal entries are not always repeated.

Data set [1] can be described thus: In Vitro Metabolism in Human Liver Microsomes (predicted EH). The class given is in vitro ADME. The protocol: [formula] [formula] [formula] [formula] • Cbrain=concentration of compound in brain parenchyma (ng/g) • Cbrain homogenate=concentration of compound in brain homogenate (ng/g) • Cbrain vasculature=concentration of compound in brain vasculature (ng/g) • CPlasma=concentration of compound in plasma (ng/mL) • VP=brain plasma volume (26 μL/g for male Swiss Outbred mice) • B:P=brain-to-plasma ratio • Papp=apparent permeability coefficient of compound permeating the blood-brain barrier • ∫0^tcplasmadt=concentration of compound in plasma from time zero to 5 min post-dose (equivalent to the 5 min post-dose plasma concentration, assuming no back diffusion from brain to plasma within this time period) • A=surface area of capillaries forming the blood-brain barrier (240 cm^2/g brain weight for mouse) Assay 7 In Vitro Metabolism in Human Liver Microsomes
The solubility of test compounds and their recovery from the incubation media were confirmed prior to the metabolic assay. Metabolic stability was performed by incubating test compounds individually (1 μM) at 37° C. with human liver microsomes. The metabolic reaction was initiated by the addition of a NADPH-regenerating system (i.e. NADPH is the cofactor required for CYP450-mediated metabolism) and quenched at various time points over the incubation period by the addition of acetonitrile. Additional samples with dual co-factors, i.e. NADPH and UDPGA (the co-factor for glucuronidation), were also included in the incubation for the qualitative assessment of the potential for glucuronide formation. The relative loss of parent compound and formation of metabolic products was monitored by LC/MS using a Waters/Micromass LCT mass spectrometer.
Test compound concentration versus time data were fitted to an exponential decay function to determine the first-order rate constant for substrate depletion. In cases where clear deviation from first-order kinetics was evident, only the initial linear portion of the profile was utilised to determine the degradation rate constant (k). Each substrate depletion rate constant was then used to calculate: [1] degradation half-life, [2] an in vitro intrinsic clearance value (CLint,in vitro); [3] a predicted in vivo intrinsic clearance value (CLint); and [4] a predicted in vivo hepatic extraction ratio (EH).
[formula] • The following scaling parameters were assumed for estimating metabolic stability parameters:
Predictions of In Vivo Hepatic Clearance and Hepatic Extraction Ratios:
The microsome-predicted hepatic extraction ratios (EH) obtained based on the relative rate of degradation of the test compound in vitro, lead to test compounds being classified as low (<0.3), intermediate (0.3-0.7), high (0.7-0.95) or very high (>0.95) extraction compounds. The assumptions underlying this classification are stated below.
The use of hepatic microsomes in the prediction of the in vivo hepatic clearance and extraction ratio is based on a number of assumptions (Obach, 1999; Drug Metab. Dispos. 27: 1350-1359):
1) Hepatic (microsomal) metabolic clearance is the major clearance mechanism for compounds in vivo;
2) NADPH-dependent oxidative metabolism predominates over other metabolic routes (i.e. direct conjugative metabolism, reduction, hydrolysis, etc.); and,
3) Rates of metabolism and enzyme activities in vitro are truly reflective of those that exist in vivo.
Calculations of intrinsic clearance are based on the “in vitro […] method” (Obach, 1999), which has two further inherent assumptions:
1) The substrate concentration employed is well below the apparent KM for substrate turnover; and,
2) There is no significant product inhibition, nor is there any mechanism based inactivation of enzyme.
Data should be considered within these terms of reference.

Data set [2] relates to MPTP induced cell death in the SN. The data set can be described thus: Parkinson's disease in vivo: MPTP model. The conditions noted are these: MPTP mice; for Behaviour Pole Test, % (SSV = 0%) / Behaviour Pole Test, value ± SD: 30 mg/kg; for SN cell counts % of SSV / SN cell counts (cells +/− SD): test drug 30 mg/kg daily by oral gavage, several experiments. Further details: species or system mouse. An excerpt:
Parkinson's Disease In Vivo Technique: MPTP
MPTP (1-methyl 4-phenyl 1,2,3,6-tetrahydropyridine) is a chemical that is related to the opioid analgesic drugs. MPTP causes Parkinsonian side-effects. This occurs when MPTP is metabolized into MPP+, which kills neurons in a part of the brain called the substantia nigra. MPP+ interferes with mitochondria metabolism which leads to cell death and causes the build up of free radicals, toxic molecules that contribute further to cell destruction. MPTP has abilities to effect neuronal death in dopaminergic cells. Such effects lead to gross depletion of dopaminergic neurons which has severe implications on cortical control of complex movements.
General Experimental Design
Determining that MPTP Causes Continued Cell Death
Control (non tg) and transgenic mice receive five intraperitoneal injections of MPTP-HCl (23 gauge needle, 20 mg\kg of free base; Sigma, St. Louis, Mo., USA) dissolved in sterile 0.9% saline at 2-h interval in 1 day. Control animals receive five intraperitoneal injections of 0.9% saline. […] 20 C57BL6, 10 control and 10 hA53T tg are used to establish the precise dose of toxin at 2 weeks. Animals are allowed to recover for 1 week, 2 weeks, 1 month, 12, months and 18 months. The animals are killed and the brains removed for histological (stereological) and biochemical analysis.
Determining Whether Test Drug Reduces MPTP Induced Cell Death
Animals are treated as described above. They are treated with test drug 2 days after MPTP injection until death. Test drug is given by oral gavage at a daily dosage of 30 mg/kg. The time of killing the animals is dependant on the analysis of Experiment 1, normally one month or less.
Drugs are administered by oral gavage, at a daily dosage of 30 mg/kg.
Mice are assessed at prior to killing the mice for histological analysis.
Motor coordination and strength are assessed using the rotarod. The rotarod consists of a plastic rotating rod of 3.6 cm axial diameter partitioned by metal disks into five sections to allow the testing of multiple mice simultaneously. Mice are trained on two sessions where the rotation speed is ramped from 0-30 rpm over 5 min and one training session where rotation is a constant 16 rpm for 5 min. Within two days of training, animals are formally assessed on the rotarod rotating at 16 rpm for a maximum of 3 min: the time to fall on this single test is the recorded data point.
The pole is a 700 mm long, 5 mm diameter, wooden rod. The rod is supported at its base and held vertical. The total walking distance for the mice is 550 mm. The time taken for the mouse to descend the pole is measured with a maximum time of 120 s. If a mouse falls, the time is scored as 120 s.

As to `CNCc1nc2c(O)c(Cl)cc(Cl)c2c(=O)n1C` [Compound F4161], the “Metabolism (Predicted EH), Microsomes: Human” value (shortened to “Metabolism (Predicted EH)”) in data set [1] was “Human <0.2”. Also, in data set [2], the “Behaviour Pole Test, % (SSV = 0%)” value is 2.55%; the “Behaviour Pole Test, value ± SD” value is on record as “(2.85 ± 1.63)”; the “SN cell counts % of SSV” value was 28.05%; the “SN cell counts (cells +/− SD)” value is reported as “(2781.33 ± 382.88) cells”.

For `CN(C)Cc1nc2c(O)c(Cl)cc(Cl)c2c(=O)n1CC1CC1` [Compound F4267], the “Metabolism (Predicted EH)” value in data set [1] was “Human <0.31”. Also, in data set [2], the “SN cell counts % of SSV” value was 53.94% and 53.77%; the “SN cell counts (cells +/− SD)” value was 3331.96 ± 262.97 cells and 4315.11 ± 310.21 cells.

In the case of `CCn1c(CN(C)C)nc2c(O)c(Cl)cc(Cl)c2c1=O.Cl` [Compound F4268], the “Metabolism (Predicted EH)” value in data set [1] is “Human <0.2”. In addition, in data set [2], the “Behaviour Pole Test, % (SSV = 0%)” value is −25.38%; the “Behaviour Pole Test, value ± SD” value is listed as “(3.66 ± 1.87)”; the “SN cell counts % of SSV” value was 40.35% and 74.83% and 64.00%; the “SN cell counts (cells +/− SD)” value is 3797.33 ± 562.78 cells and 3065 ± 387 cells and 3163.87 ± 611.27 cells.

Take `CN(C)Cc1nc2c(O)c(Cl)cc(Cl)c2c(=O)n1C` [Compound F4269, 5,7-Dichloro-2-(dimethylamino)methyl-8-hydroxy-3-methylquinazolin-4(3H)-one]: the “Metabolism (Predicted EH)” value in data set [1] was “Human <0.2”. Also, in data set [2], the “SN cell counts % of SSV” value was determined as 26.76% and the “SN cell counts (cells +/− SD)” value came to 3557.33 ± 556.55 cells.

For the compound `CCN(CC)Cc1nc2c(O)c(Cl)cc(Cl)c2c(=O)n1CC1CC1` [Compound F4385], the “Metabolism (Predicted EH)” value in data set [1] is “Human <0.2”. In addition, in data set [2], the “SN cell counts % of SSV” value was 31.49% and the “SN cell counts (cells +/− SD)” value is 3690.00 ± 919.10 cells.

Turning to `C#CCN(C)Cc1nc2c(O)c(Cl)cc(Cl)c2c(=O)n1CC1CC1` [Compound F4387], the “Metabolism (Predicted EH)” value in data set [1] is reported as 0.75.

Take `Br.CCn1c(CNC)nc2c(O)c(Cl)cc(Cl)c2c1=O` [Compound F4486]: in data set [2], the “Behaviour Pole Test, % (SSV = 0%)” value is 38.46%; the “Behaviour Pole Test, value ± SD” value is on record as “(1.81 ± 0.80)”; the “SN cell counts % of SSV” value worked out at 24.11%; the “SN cell counts (cells +/− SD)” value was 2647.97 ± 814.44 cells.

Consider `CCNCc1nc2c(O)c(Cl)cc(Cl)c2c(=O)n1CC` [Compound F4495], for which the “Metabolism (Predicted EH)” value in data set [1] was “Human <0.2”. For the same compound, in data set [2], the “Behaviour Pole Test, % (SSV = 0%)” value is on record as 18.32%; the “Behaviour Pole Test, value ± SD” value is listed as “(2.26 ± 0.82)”; the “SN cell counts % of SSV” value was 45.45% and 50.33%.

For `Br.CCNCc1nc2c(O)c(Cl)cc(Cl)c2c(=O)n1C` [Compound F4496], the “Metabolism (Predicted EH)” value in data set [1] is listed as “Human <0.2”. Moreover, in data set [2], the “Behaviour Pole Test, % (SSV = 0%)” value is on record as 38.61% and the “Behaviour Pole Test, value ± SD” value is given as “(1.79 ± 1.13)”.
